These results are taken from patent US9561231B2 (AbbVie Inc., priority 2012, dated 2017).

Read-outs that look alike come from different tables or passages of the source.

The target of test [1] is T1, first (BD1: amino acids K57-E168) bromodomain of BRD4 (Homo sapiens, UniProt O60885).
T1 construct: His-tagged first (BD1: amino acids K57-E168)
As to the kind of experiment: TR-FRET bromodomain binding assay, BRD4 BD1. The note with it: Ki calculated from IC50, probe Kd and probe concentration, read-out: TR-FRET Binding Ki: BRD4 (BDI_K57-E168). Put shortly: (§1)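 Displacement of an Alexa647-labelled BET-inhibitor from His-tagged BD1 (K57-E168) or BD2 ([…]) measured by TR-FRET in pH 6.0 sodium phosphate buffer with NaCl, EDTA, Triton X-100 and DTT.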

Test [2] addresses T2, second (BD2: amino acids E352-E168) bromodomain of BRD4 (Homo sapiens, UniProt O60885).
T2 construct: protocol
The test can be described thus: TR-FRET bromodomain binding assay, BRD4 BD2. Conditions: Ki calculated from IC50, probe Kd and probe concentration, read-out: TR-FRET Binding Ki: BRD4 (BDII_E352-M457). In a few lines:
as §1

The test system of test [3] is LPS induced IL-6 production. The test can be described thus: LPS (lipopolysaccharide) induced IL-6 production mouse assay. The note with it: 1 h before LPS 2.5 mg/kg i.p., serum IL-6 2 h after LPS, p<0.05.
Procedure: Severe combined immunodeficient female mice (5 per group) received an intraperitoneal challenge of lipopolysaccharide (2.5 mg/kg, L2630 E. coli 0111:B4) one hour after oral administration of compounds. Mice were euthanized 2 hours after lipopolysaccharide injection, blood was removed by cardiac puncture, and then the serum harvested from the blood samples was frozen at −80° C. On the day of the assay the serum samples were brought to room temperature and then diluted 1:20 in phosphate-buffered saline containing 2% bovine serum albumin. Interleukin-6 measurements were performed using a cytokine assay from Meso Scale Discovery (Gaithersburg, Md.) for mouse serum analysis according to the manufacturer's protocol and read on a SECTOR Imager 6000 (Meso Scale Discovery, Gaithersburg, Md.) instrument. Statistical analysis was performed using Prism software (version 5.0) incorporating Dunnett's one way ANOVA. The IL-6 mean and standard deviation of the group of vehicle treated animals were compared with the IL-6 mean and standard deviation of the group treated with drug. A p value <0.05 means that there is less than a 5% probability that the mean values in the two groups are equal.
Test [4] relates to breast cancer cell line MX-1. As to the kind of experiment: MX-1 cell line proliferation assay (3-day). In kind it is cell-based. The note with it: Homo sapiens, MX1, MX-1 cells, Cell Titer Glo, read-out: Cellular proliferation: EC50. In a few lines:
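MX-1 cells in RPMI/10% FBS, plated 5000/well overnight, then exposed to compound at final 3 to 0.0001 μM (3-fold series) for 3 days at 37° C. Cell Titer Glo luminescence normalized to DMSO-treated cells; EC50 from sigmoidal curve fit.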
A general note: Cellular ATP, detected with luciferase, serves as a proxy for viable cell number.

The mark [5] stands for this setting: TR-FRET assay protocol (D, E or G) per compound.
[6] abbreviates: TR-FRET assay protocol (A-G, compound concentration range).

The Ki is a dissociation constant, usually derived from enzyme kinetics or from competition with a known ligand. For `CCOc1cc(=O)n(C)cc1-c1cc(NS(=O)(=O)CC)ccc1Oc1ccc(Cl)cc1` [Example 400, N-[4-(4-chlorophenoxy)-3-(4-ethoxy-1-methyl-6-oxo-1,6-dihydropyridin-3-yl)phenyl]ethanesulfonamide], the Ki was 7.21 nM in test [1] (setting [5]) and 1.81 nM in test [2] (setting [5]). In addition, in test [3] (3 mg/kg oral), the “Inhibition of LPS induced IL-6 production, % inhibition” value (shortened to “Inhibition … % inhibition”) is on record as 66.4 @ 3 mg/kg %. The EC50 in test [4] (72 hours with compound) worked out at 18.1 nM.

As for `Cn1cc(-c2cc(NS(C)(=O)=O)ccc2Oc2ccccc2Cl)ccc1=O` [Example 235, N-[4-(2-chlorophenoxy)-3-(1-methyl-6-oxo-1,6-dihydropyridin-3-yl)phenyl]methanesulfonamide], the Ki in test [1] (setting [6]) is 47.6 nM; in test [2] (setting [6]), 17 nM. In addition, the “Inhibition … % inhibition” value in test [3] (30 mg/kg oral) is listed as 58.7 @ 30 mg/kg %. Besides, the EC50 in test [4] (72 h incubation) worked out at 238 nM.

As for `CCS(=O)(=O)Nc1ccc(Oc2ccc(F)cc2F)c(-c2cn(C)c(=O)cc2-n2cccn2)c1` [Example 346, N-{4-(2,4-difluorophenoxy)-3-[1-methyl-6-oxo-4-(1H-pyrazol-1-yl)-1,6-dihydropyridin-3-yl]phenyl}ethanesulfonamide], the Ki in test [1] (setting [6]) was 41.5 nM; in test [2] (setting [6]) it was 13 nM. Also, the “Inhibition … % inhibition” value in test [3] (3 mg/kg oral) is listed as 48.6 @ 3 mg/kg %. In test [4] (72 h incubation), the EC50 came to 264 nM.

Regarding `Cn1cc(-c2cc(NS(C)(=O)=O)ccc2Oc2ccc(Cl)cc2)ccc1=O` [Example 233, N-[4-(4-chlorophenoxy)-3-(1-methyl-6-oxo-1,6-dihydropyridin-3-yl)phenyl]methanesulfonamide], the Ki in test [1] (setting [6]) was 19.2 nM; in test [2] (setting [6]), 110 nM. In addition, the “Inhibition … % inhibition” value in test [3] (30 mg/kg oral) is given as 75.9 @ 30 mg/kg %. Besides, in test [4] (72 h incubation), the EC50 is 423 nM.

For `[2H]C([2H])(C)Oc1cc(=O)n(C)cc1-c1cc(NS(=O)(=O)CC)ccc1Oc1ccc(F)cc1F` [Example 333, N-[4-(2,4-difluorophenoxy)-3-{4-[(1,1-^2H2)ethyloxy]-1-methyl-6-oxo-1,6-dihydropyridin-3-yl}phenyl]ethanesulfonamide], the “Inhibition … % inhibition” value in test [3] (3 mg/kg oral) was 63.6 @ 3 mg/kg %.

Take `CCS(=O)(=O)Nc1ccc(Oc2ccc(F)cc2F)c(-c2cn(C)c(=O)cc2-c2ccc(CO)cc2)c1` [Example 278, N-[4-(2,4-difluorophenoxy)-3-{4-[4-(hydroxymethyl)phenyl]-1-methyl-6-oxo-1,6-dihydropyridin-3-yl]phenyl}ethanesulfonamide]: the Ki is 7.53 nM in test [1] (setting [6]) and 1.39 nM in test [2] (setting [6]). Further, the EC50 in test [4] (72 h incubation) came out at 63.4 nM.

Regarding `CCS(=O)(=O)Nc1ccc(Oc2ccc(F)cc2F)c(-c2cn(C)c(=O)cc2-c2cnn(CC(C)C)c2)c1` [Example 391, N-[4-(2,4-difluorophenoxy)-3-{1-methyl-4-[1-(2-methylpropyl)-1H-pyrazol-4-yl]-6-oxo-1,6-dihydropyridin-3-yl]phenyl}ethanesulfonamide], the Ki in test [1] (setting [5]) was 9.05 nM; in test [2] (setting [5]), 4.59 nM. Also, the EC50 in test [4] (72 hours with compound) turned out to be 57.3 nM.

On to `CCOC(=O)C1CCN(c2cc(=O)n(C)nc2-c2ccccc2Oc2ccccc2)C1` (centres unmarked) [Example 49, ethyl 1-[1-methyl-6-oxo-3-(2-phenoxyphenyl)-1,6-dihydropyridazin-4-yl]pyrrolidine-3-carboxylate], for which the Ki in test [1] (setting [6]) was 6680 nM; in test [2] (setting [6]) it was 748 nM. The EC50 in test [4] (72 h incubation) amounted to 7110 nM.

Consider `Cn1cc(-c2cc(NS(=O)(=O)CC(=O)O)ccc2Oc2ccccc2)ccc1=O` [Example 226, {[3-(1-methyl-6-oxo-1,6-dihydropyridin-3-yl)-4-phenoxyphenyl]sulfamoyl}acetic acid], for which the results for the Ki in test [1] (setting [6]) and in test [2] (setting [6]) were 271 nM and 1130 nM, respectively. Further, in test [4] (72 h incubation), the EC50 was found to be 10000 nM.

In the case of `CCOc1cc(=O)n(C)cc1-c1cc(NS(=O)(=O)CC)ccc1Oc1ccc(C#N)cc1F` [Example 408, N-[4-(4-cyano-2-fluorophenoxy)-3-(4-ethoxy-1-methyl-6-oxo-1,6-dihydropyridin-3-yl)phenyl]ethanesulfonamide], the inhibitory constant (Ki) is 45.1 nM in test [1] (setting [5]) and 19.1 nM in test [2] (setting [5]). Moreover, the EC50 in test [4] (72 hours with compound) was 115 nM.

For `Cn1nc(-c2ccccc2Oc2ccccc2)c(-c2cc[nH]c(=O)c2)cc1=O` [Example 55, 2-methyl-5-(2-oxo-1,2-dihydropyridin-4-yl)-6-(2-phenoxyphenyl)pyridazin-3(2H)-one], the results for the Ki in test [1] (setting [6]) and in test [2] (setting [6]) were 6890 nM and 778 nM, respectively. Further, in test [4] (72 h incubation), the EC50 was found to be 13700 nM.

`COc1cc(=O)n(C)cc1-c1ccccc1Oc1ccccc1` [Example 258, 4-methoxy-1-methyl-5-(2-phenoxyphenyl)pyridin-2(1H)-one]: the Ki is 730 nM in test [1] (setting [6]) and 382 nM in test [2] (setting [6]). In test [4] (72 h incubation), the EC50 amounted to 1510 nM.

With `Cn1nc(-c2cc(C(N)=O)ccc2Oc2ccccc2)ccc1=O` [Example 14, 3-(1-methyl-6-oxo-1,6-dihydropyridazin-3-yl)-4-phenoxybenzamide], the Ki is 2550 nM in test [1] (setting [6]) and 1220 nM in test [2] (setting [6]). In addition, the EC50 in test [4] (72 h incubation) stood at 11500 nM.

Consider `CCS(=O)(=O)Nc1ccc(Oc2ccc(F)cc2F)c(-c2cc(F)c(=O)n(C)c2)c1` [Example 352, N-[4-(2,4-difluorophenoxy)-3-(5-fluoro-1-methyl-6-oxo-1,6-dihydropyridin-3-yl)phenyl]ethanesulfonamide], for which the Ki is 26.8 nM in test [1] (setting [6]) and 77.9 nM in test [2] (setting [6]). For the same compound, the EC50 in test [4] (72 h incubation) came out at 256 nM.

Take `Cn1nc(-c2ccccc2Oc2ccccc2)c(-c2ccc(CN3CCOCC3)cc2)cc1=O` [Example 66, 2-methyl-5-[4-(morpholin-4-ylmethyl)phenyl]-6-(2-phenoxyphenyl)pyridazin-3(2H)-one]: the Ki was 141 nM in test [1] (setting [6]) and 159 nM in test [2] (setting [6]). In addition, the EC50 in test [4] (72 h incubation) was 2480 nM.

`COc1cc(=O)n(C)nc1-c1cc(N(C)S(C)(=O)=O)ccc1Oc1ccccc1` [Example 23, N-[3-(4-methoxy-1-methyl-6-oxo-1,6-dihydropyridazin-3-yl)-4-phenoxyphenyl]-N-methylmethanesulfonamide]: the Ki in test [1] (setting [6]) is 480 nM; in test [2] (setting [6]) it was 214 nM. In test [4] (72 h incubation), the EC50 was 3800 nM.

Turning to `Cn1cc(-c2ccccc2Oc2ccccc2)ccc1=O` [Example 223, 1-methyl-5-(2-phenoxyphenyl)pyridin-2(1H)-one], the Ki was 635 nM in test [1] (setting [6]) and 872 nM in test [2] (setting [6]). Moreover, the EC50 in test [4] (72 h incubation) was 4810 nM.

Take `CCS(=O)(=O)Nc1ccc(Oc2ccc(F)cc2F)c(-c2cn(C)c(=O)cc2-c2ccc(N3CCN(C)CC3)cc2)c1` [Example 330, N-[4-(2,4-difluorophenoxy)-3-{1-methyl-4-[4-(4-methylpiperazin-1-yl)phenyl]-6-oxo-1,6-dihydropyridin-3-yl}phenyl]ethanesulfonamide]: the Ki in test [1] (setting [6]) is 1.96 nM; in test [2] (setting [6]), 0.584 nM. The EC50 in test [4] (72 h incubation) is 49.7 nM.

Regarding `CCOc1cc(=O)n(C)cc1-c1cc(NS(=O)(=O)CC)ccc1OCC1CC1` [Example 381, N-[4-(cyclopropylmethoxy)-3-(4-ethoxy-1-methyl-6-oxo-1,6-dihydropyridin-3-yl)phenyl]ethanesulfonamide], the results for the Ki in test [1] (setting [5]) and in test [2] (setting [5]) were 33.4 nM and 56.1 nM, respectively. Besides, in test [4] (72 hours with compound), the EC50 came to 115 nM.

On to `CCS(=O)(=O)Nc1ccc(Oc2ccc(F)cc2F)c(-c2cn(C)c(=O)cc2OCC(C)C)c1` [Example 290, N-{4-(2,4-difluorophenoxy)-3-[1-methyl-4-(2-methylpropoxy)-6-oxo-1,6-dihydropyridin-3-yl]phenyl}ethanesulfonamide], for which the Ki was 12 nM in test [1] (setting [6]) and 3.22 nM in test [2] (setting [6]). For the same compound, the EC50 in test [4] (72 h incubation) turned out to be 138 nM.

For the compound `Cn1nc(-c2ccccc2Oc2ccccc2)c(-c2ccc(NS(C)(=O)=O)cc2)cc1=O` [Example 119, N-{4-[1-methyl-6-oxo-3-(2-phenoxyphenyl)-1,6-dihydropyridazin-4-yl]phenyl}methanesulfonamide], the Ki is 135 nM in test [1] (setting [6]) and 63.6 nM in test [2] (setting [6]). In test [4] (72 h incubation), the EC50 was found to be 615 nM.

Take `CCS(=O)(=O)Nc1ccc(Oc2ccc(F)cc2F)c(-c2cn(C)c(=O)cc2-c2ccc(CN(C)C)cc2)c1` [Example 280, N-[4-(2,4-difluorophenoxy)-3-(4-{4-[(dimethylamino)methyl]phenyl}-1-methyl-6-oxo-1,6-dihydropyridin-3-yl)phenyl]ethanesulfonamide]: the Ki in test [1] (setting [6]) is 3.8 nM; in test [2] (setting [6]) it was 1.73 nM. Further, the EC50 in test [4] (72 h incubation) is 38.1 nM.

Take `CC(=O)NCc1ccc(-c2cc(=O)n(C)nc2-c2ccccc2Oc2ccccc2)cc1` [Example 99, N-{4-[1-methyl-6-oxo-3-(2-phenoxyphenyl)-1,6-dihydropyridazin-4-yl]benzyl}acetamide]: the Ki was 142 nM in test [1] (setting [6]) and 58.7 nM in test [2] (setting [6]). In test [4] (72 h incubation), the EC50 is 558 nM.
